Consider three compounds from PMC7713230, “Upconversion NIR-II fluorophores for mitochondria-targeted cancer imaging and photothermal therapy” (Nature Communications, 2020).

Experiment [1] relates to osteosarcoma cell lines (e.g., 143B cells). The following applies: cited from earlier work. From the text: Osteosarcoma is the third most common malignant tumor and accounts for more than 60% of all malignant bone tumors in children and adolescents. Surgical excision of all primary and metastatic tumors remains the essential strategy behind osteosarcoma treatment. However, current diagnostic tools allow detection of only 8–15% of bone or lung metastatic patients[52],[53]. Thus, it is urgent to develop new theranostic strategies for early diagnosis, therapy, and monitoring responses to osteosarcoma therapies[54],[55]. The oligopeptide PPSHTPT (PT) was first designed to mimic the properties of th ...

Experiment [2] deals with mitochondria of 143B cells. Briefly: Mitochondrial colocalization by confocal laser scanning microscopy. It is filed as cell-based, human. The note with it: concentrations lower than 10 nM, same experimental conditions. The method, then:
[…] Scale bar: 10 μm. Results in (a–f) are representative of three independent experiments.
143B (50,000 cells) were seeded in round discs and incubated in 1 mL of DMEM medium (pH = 7.4) containing 10% FBS for 24 h. After replacing the medium with 1 mL of fresh medium, 3k-PEG, H4-PEG, and H4-PEG-PT were added, respectively, and the cells were allowed to incubate for 6 h. After removing the medium and subsequently washing with PBS buffer (pH = 7.4) thrice, mitotracker green was added to stain the mitochondria for 30 min. The cells were viewed under a FV1200 CLSM (Olympus) and Leica SPE.

The test system of experiment [3] is 143B cells. Briefly: Detection of ATP level. The following applies: CCCP 40 μM 6 h, positive control, control = 100%. It is filed as cell-based, human. The method, then:
(§1) 20 mm confocal dishes, and cultured for 12 h at a density of 1×10^5 cells/well. Then, 200 µL of H4-PEG-PT (64 µM) was introduced into the confocal dishes. After 7 h incubation, 143B and HepG2 cells were washed twice with PBS, stained with Hoechst staining kit in PBS for 20 min. The tumor cell samples were immediately examined by an inverted Zeiss Axiovert 200 fluorescence microscopy at a 20× objective, using a high-pressure mercury lamp as an excitation source.
(§2) 143B cells (6×103) were incubated in 96 wells plate at 37 °C for 12 h. Then, cells were treated with 64 μM H4-PEG-PT or 40 μM CCCP for 6 h and irradiated by an 808 nm laser for 3 min each well. After irradiation, ATP level was immediately determined by an ATP determination kit (cat. no. A22066) from Thermo Fisher Scientific with 1% Triton X 100 water solution for cell permeabilization. After 10 min incubation, the luminescence intensity was then detected using a microplate reader (TECAN, Infinite M200 […]
(§3) Detection of mitochondrial membrane potential by JC-1 assay
(§4) 143B cells (6×103) were incubated in 96 wells plate for 12 h. Then, cells were treated with H4-PEG-PT (64 μM), or CCCP (40 μM) for 6 h and irradiated by an 808 nm laser for 3 min. […] Fluorescence intensity was then detected using a microplate reader (TECAN, Infinite M200 Pro) with excitation at 485 nm (green) or 535 nm (red) and emissions at 535 nm (green) or 595 nm (red). […]

The subject of experiment [4] is 143B cells. Nature of the experiment: Mitochondrial membrane potential by JC-1 assay. It is filed as cell-based, human. The following applies: CCCP 40 μM 6 h, positive control, control = 100%. The method, then: as §1, §2, §3, §4

Take “PPSHTPT [osteosarcoma-targeting oligopeptide PPSHTPT, mimics osteocalcin]”: in experiment [1], the “affinity and specificity for osteosarcoma cell lines” value is “high affinity and specificity”.

As to `CN1/C(=C/C=C/c2n(Cc3ccc(CCl)cc3)c3cc(Cl)c(Cl)cc3[n+]2Cc2ccc(CCl)cc2)Oc2ccccc21` [Mitotracker Green], the “fluorescent intensity in mitochondrial imaging” value in experiment [2] was “too weak to be detected”. Take `N#CC(C#N)=NNc1cccc(Cl)c1` [CCCP, carbonyl cyanide m-chlorophenylhydrazone]: in experiment [3], the “cellular ATP level” value is ~ 78%. For the same compound, the “ratio of J-aggregates to monomers” value in experiment [4] turned out to be 63%.
